Reference: patent US5672715A, “Herbicidal substituted 3-aryl-pyrazoles” (Monsanto Company, priority 1995, dated 1997)

What was measured:
Type in all cases: in vivo
[1] = test system: Common Chickweed; assay: pre-emergence herbicide test; conditions: pre-emergence, 0.25 lb/A; read-out: % plant inhibition
In short: (§1)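 Greenhouse pan assay in which seeds lie under a treated topsoil cover; carrier was acetone or water. Inhibition (%) was recorded about 14 days post-treatment.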

[2] = test system: Rape; assay: pre-emergence herbicide test; conditions: pre-emergence, 0.25 lb/A; read-out: % plant inhibition
In short: as §1

[3] = test system: Soybean; assay: pre-emergence herbicide test; conditions: Glycine max, pre-emergence, 0.25 lb/A; read-out: % plant inhibition
In short: as §1

[4] = test system: Giant Foxtail; assay: pre-emergence herbicide test; conditions: Setaria faberi, pre-emergence, 0.25 lb/A; read-out: % plant inhibition
In short: as §1

[5] = test system: Downy Brome; assay: pre-emergence herbicide test; conditions: Bromus tectorum, pre-emergence, 0.25 lb/A; read-out: % plant inhibition
In short: as §1

[6] = test system: Barnyardgrass; assay: pre-emergence herbicide test; conditions: Echinochloa crus-galli, pre-emergence, 0.25 lb/A; read-out: % plant inhibition
In short: as §1

[7] = test system: Blackgrass; assay: pre-emergence herbicide test; conditions: Alopecurus myosuroides, pre-emergence, 0.25 lb/A; read-out: % plant inhibition
In short: as §1

[8] = test system: Cocklebur; assay: pre-emergence herbicide test; conditions: Xanthium strumarium, pre-emergence, 0.25 lb/A; read-out: % plant inhibition
In short: as §1

[9] = test system: Green Foxtail; assay: pre-emergence herbicide test; conditions: Setaria viridis, pre-emergence; 0.25 lb/A; read-out: % plant inhibition
In short: as §1

[10] = test system: Velvetleaf; assay: pre-emergence herbicide test; conditions: Abutilon theophrasti, pre-emergence, 0.25 lb/A; read-out: % plant inhibition
In short: as §1

[11] = test system: Morning Glory; assay: pre-emergence herbicide test; conditions: Ipomoea, pre-emergence, 0.25 lb/A; read-out: % plant inhibition
In short: as §1

[12] = test system: Bedstraw Catchweed; assay: pre-emergence herbicide test; conditions: Galium aparine, pre-emergence, 0.25 lb/A; read-out: % plant inhibition
In short: as §1

[13] = test system: Wheat; assay: pre-emergence herbicide test; conditions: Triticum aestivum, pre-emergence, 0.25 lb/A; read-out: % plant inhibition
In short: as §1

[14] = test system: Seedling Johnsongrass; assay: pre-emergence herbicide test; conditions: Sorghum halepense, pre-emergence, 0.25 lb/A; read-out: % plant inhibition
In short: as §1

[15] = test system: Corn; assay: pre-emergence herbicide test; conditions: Zea mays, pre-emergence, 0.25 lb/A; read-out: % plant inhibition
In short: as §1

[16] = test system: Birdseye Speedwell; assay: pre-emergence herbicide test; conditions: pre-emergence, 0.25 lb/A; read-out: % plant inhibition
In short: as §1

[17] = test system: Wild Oats; assay: pre-emergence herbicide test; conditions: Avena fatua, pre-emergence, 0.25 lb/A; read-out: % plant inhibition
In short: as §1

[18] = test system: Common Chickweed; assay: post-emergence herbicide test; conditions: post-emergence, 0.25 lb/A; read-out: % plant inhibition
In short: (§2)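 Seeds sown on compacted topsoil, covered, leveled; greenhouse, overhead or subirrigation. Plants 2–3 wk old → atomizer spray, 170.3 kPa, 1870 L/Ha, ~0.4% v/v emulsifier. Readout: % inhibition.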

[19] = test system: Rape; assay: post-emergence herbicide test; conditions: post-emergence, 0.25 lb/A; read-out: % plant inhibition
In short: as §2

[20] = test system: Soybean; assay: post-emergence herbicide test; conditions: Glycine max, post-emergence, 0.25 lb/A; read-out: % plant inhibition
In short: as §2

[21] = test system: Giant Foxtail; assay: post-emergence herbicide test; conditions: Setaria faberi, post-emergence, 0.25 lb/A; read-out: % plant inhibition
In short: as §2

[22] = test system: Downy Brome; assay: post-emergence herbicide test; conditions: Bromus tectorum, post-emergence, 0.25 lb/A; read-out: % plant inhibition
In short: as §2

[23] = test system: Barnyardgrass; assay: post-emergence herbicide test; conditions: Echinochloa crus-galli, post-emergence, 0.25 lb/A; read-out: % plant inhibition
In short: as §2

[24] = test system: Blackgrass; assay: post-emergence herbicide test; conditions: Alopecurus myosuroides, post-emergence, 0.25 lb/A; read-out: % plant inhibition
In short: as §2

[25] = test system: Cocklebur; assay: post-emergence herbicide test; conditions: Xanthium strumarium, post-emergence, 0.25 lb/A; read-out: % plant inhibition
In short: as §2

[26] = test system: Green Foxtail; assay: post-emergence herbicide test; conditions: Setaria viridis, post-emergence, 0.25 lb/A; read-out: % plant inhibition
In short: as §2

[27] = test system: Velvetleaf; assay: post-emergence herbicide test; conditions: Abutilon theophrasti, post-emergence, 0.25 lb/A; read-out: % plant inhibition
In short: as §2

[28] = test system: Morning Glory; assay: post-emergence herbicide test; conditions: Ipomoea, post-emergence, 0.25 lb/A; read-out: % plant inhibition
In short: as §2

[29] = test system: Bedstraw Catchweed; assay: post-emergence herbicide test; conditions: Galium aparine, post-emergence, 0.25 lb/A; read-out: % plant inhibition
In short: as §2

[30] = test system: Wheat; assay: post-emergence herbicide test; conditions: Triticum aestivum, post-emergence, 0.25 lb/A; read-out: % plant inhibition
In short: as §2

[31] = test system: Seedling Johnsongrass; assay: post-emergence herbicide test; conditions: Sorghum halepense, post-emergence, 0.25 lb/A; read-out: % plant inhibition
In short: as §2

[32] = test system: Corn; assay: post-emergence herbicide test; conditions: Zea mays, post-emergence, 0.25 lb/A; read-out: % plant inhibition
In short: as §2

[33] = test system: Birdseye Speedwell; assay: post-emergence herbicide test; conditions: post-emergence, 0.25 lb/A; read-out: % plant inhibition
In short: as §2

[34] = test system: Wild Oats; assay: post-emergence herbicide test; conditions: Avena fatua, post-emergence, 0.25 lb/A; read-out: % plant inhibition
In short: as §2

## Cc1c(-c2cc(CS)c(Cl)cc2F)nn(C)c1C(F)(F)F [Compound 30]
[1]
  inhibition at 280.212 g/ha: 35%
[2]
  inhibition at 280.212 g/ha: 5%
[3]
  inhibition at 280.212 g/ha: 20%
[4]
  inhibition at 280.212 g/ha: 25%
[5]
  inhibition at 280.212 g/ha: 5%
[6]
  inhibition at 280.212 g/ha: 70%
[7]
  inhibition at 280.212 g/ha: 20%
[8]
  inhibition at 280.212 g/ha: 25%
[9]
  inhibition at 280.212 g/ha: 98%
[10]
  inhibition at 280.212 g/ha: 90%
[11]
  inhibition at 280.212 g/ha: 20%
[12]
  inhibition at 280.212 g/ha: 40%
[13]
  inhibition at 280.212 g/ha: 0%
[14]
  inhibition at 280.212 g/ha: 95%
[15]
  inhibition at 280.212 g/ha: 15%
[16]
  inhibition at 280.212 g/ha: 50%
[17]
  inhibition at 280.212 g/ha: 0%
[18]
  inhibition at 280.212 g/ha: 75%
[19]
  inhibition at 280.212 g/ha: 60%
[20]
  inhibition at 280.212 g/ha: 65%
[21]
  inhibition at 280.212 g/ha: 20%
[22]
  inhibition at 280.212 g/ha: 25%
[23]
  inhibition at 280.212 g/ha: 60%
[24]
  inhibition at 280.212 g/ha: 30%
[25]
  inhibition at 280.212 g/ha: 60%
[26]
  inhibition at 280.212 g/ha: 65%
[27]
  inhibition at 280.212 g/ha: 85%
[28]
  inhibition at 280.212 g/ha: 65%
[29]
  inhibition at 280.212 g/ha: 40%
[30]
  inhibition at 280.212 g/ha: 15%
[31]
  inhibition at 280.212 g/ha: 70%
[32]
  inhibition at 280.212 g/ha: 20%
[33]
  inhibition at 280.212 g/ha: 98%
[34]
  inhibition at 280.212 g/ha: 25%

## COC(=O)CSCc1cc(-c2nn(C)c(C(F)(F)F)c2C)c(F)cc1Cl [Compound 31]
[1]
  inhibition at 280.212 g/ha: 25%
[2]
  inhibition at 280.212 g/ha: 5%
[3]
  inhibition at 280.212 g/ha: 3%
[4]
  inhibition at 280.212 g/ha: 10%
[5]
  inhibition at 280.212 g/ha: 5%
[6]
  inhibition at 280.212 g/ha: 5%
[7]
  inhibition at 280.212 g/ha: 5%
[8]
  inhibition at 280.212 g/ha: 15%
[9]
  inhibition at 280.212 g/ha: 20%
[10]
  inhibition at 280.212 g/ha: 80%
[11]
  inhibition at 280.212 g/ha: 45%
[12]
  inhibition at 280.212 g/ha: 30%
[13]
  inhibition at 280.212 g/ha: 0%
[14]
  inhibition at 280.212 g/ha: 40%
[15]
  inhibition at 280.212 g/ha: 10%
[16]
  inhibition at 280.212 g/ha: 25%
[17]
  inhibition at 280.212 g/ha: 5%
[18]
  inhibition at 280.212 g/ha: 95%
[19]
  inhibition at 280.212 g/ha: 75%
[20]
  inhibition at 280.212 g/ha: 35%
[21]
  inhibition at 280.212 g/ha: 50%
[22]
  inhibition at 280.212 g/ha: 55%
[23]
  inhibition at 280.212 g/ha: 70%
[24]
  inhibition at 280.212 g/ha: 20%
[25]
  inhibition at 280.212 g/ha: 99%
[26]
  inhibition at 280.212 g/ha: 75%
[27]
  inhibition at 280.212 g/ha: 99%
[28]
  inhibition at 280.212 g/ha: 80%
[29]
  inhibition at 280.212 g/ha: 70%
[30]
  inhibition at 280.212 g/ha: 20%
[31]
  inhibition at 280.212 g/ha: 90%
[32]
  inhibition at 280.212 g/ha: 50%
[33]
  inhibition at 280.212 g/ha: 100%
[34]
  inhibition at 280.212 g/ha: 35%
